For assay [1], the system named is MDA-MB-231 cells. Kind of assay: Caspase-3/7 activity assay (apoptosis). To be noted: 20 h. The class given is cell-based, human. The protocol: FIG. 18. […] Multidrug-resistant MDA-MB-231 breast carcinoma cells were treated with increasing doses of mdivi-1 alone, a series of anticancer drugs alone, or the combination of increasing doses of anticancer drugs with 20 μM mdivi-1 for 20 h. Apoptosis was determined by measuring the activity of caspase-3/7. The drugs tested were platinum agent, cisplatin; antifolate agent, methotrexate; topoisomerase II inhibitor, etoposide; cytidine analog, gemcitabine; pyrimidine analog, 5-FU; alkylating agents, cyclophosphamide, MMS and MNNG; DNA crosslinking agent, MMC; DNA intercalating agent, doxorubicin; and antimitotic drug, paclitaxel.
FIG. 21A-F. Mdivi-1 enhances cisplatin sensitivity through Drp1-independent mechanisms. (A) Confirmation of the depletion of Drp1 in Drp1 knockout SV40-transformed MEF cells by western blot. (B) Drp1 wild-type (Drp1+/+) and knockout (Drp1−/−) MEF cells were treated as indicated for 20 h, and the number of apoptotic cells was determined by antibody recognizing cleaved caspase-3. […] (C) Drp1 wild-type and knockout MEF cells were treated with mdivi-1 for 24 h, and the cell number were determined by CyQuant assay. (D) OCR was measured after 1 h treatment of Drp1 wild-type and knockout MEF cells with DMSO or mdivi-1. (E) The combination effect of cisplatin with four analogs of mdivi-1. […]

A further assay deals with Drp1. To be noted: as said in Cassidy-Stone et al., Dev Cell 14:193-204; cited from earlier work.
Assay [2] has as its system MDA-MB-231 cells. Kind of assay: DNA content flow cytometry (propidium iodide): G2/M arrest and aneuploidy. To be noted: 5 μg/ml oligomycin, 5 μM FCCP or 10 μg/ml antimycin A, 24 h. Format: cell-based, human. (In flow cytometry, cells or beads pass a laser one at a time.)
The nature of assay [3]: Synergy with cisplatin, experiments not described.

With `COc1cc(-n2c(SC)nc3ccccc3c2=O)c(Cl)cc1Cl` [compound F], the “combination effect with cisplatin in enhancing apoptosis” value in the assay on MDA-MB-231 cells [1] (20 μM of agents alone or in combination with cisplatin) was “abolished the synergism with cisplatin”. Besides, the “efficacy in inhibiting Drp1 relative to mdivi-1” value in the assay with Drp1 was “poor efficacy”.

As to `N#CC(C#N)=NNc1ccc(OC(F)(F)F)cc1` [FCCP], the “G2/M cell cycle arrest and aneuploidy” value in the assay on MDA-MB-231 cells [2] was “did not induce G2/M cell cycle arrest and aneuploidy”.

As to `O=C(N/N=C/c1ccc(O)c(O)c1)c1cc2ccccc2cc1O` [Dynasore], the “synergistic effect with cisplatin” value in assay [3] is recorded as “have not demonstrated a synergistic effect”.

As for antimycin A, the “G2/M cell cycle arrest and aneuploidy” value in the assay on MDA-MB-231 cells [2] is “did not induce G2/M cell cycle arrest and aneuploidy”.

Take `CC[C@H]1/C=C/C=C/C[C@@H](C)[C@H](O)[C@@](C)(O)C(=O)[C@@H](C)[C@H](O)[C@@H](C)C(=O)[C@@H](C)[C@H](O)[C@@H](C)/C=C/C(=O)O[C@@H]2[C@H](C)[C@H](CC1)O[C@]1(CC[C@H](C)[C@H](C[C@@H](C)O)O1)[C@H]2C` [oligomycin]: the “G2/M cell cycle arrest and aneuploidy” value in the assay with MDA-MB-231 cells [2] is “did not induce G2/M cell cycle arrest and aneuploidy”.

As to `C[C@]1(c2nc3c(C(N)=O)cccc3[nH]2)CCCN1` [ABT-888], in the assay with MDA-MB-231 cells [1] (series doses), the “apoptosis, alone and in combination with cisplatin” value is listed as “resistant”.

Source of the values: patent US9492450B2, “Inhibition of dynamin related protein 1 to promote cell death” (University of Pittsburgh—of the Commonwealth System of …, priority 2011, dated 2016).
